These are literature values, as cited in patent publication US20240016826A1, “COMPOSITION, PHARMACEUTICAL COMPOSITION, USE OF A STABLE TOPICAL COMPOSITION COMPRISING A NANOEMULSION AND OF AT LEAST ONE ANTILEISHMANIAL COMPOUND, AND METHOD FOR THE TREATMENT OF CUTANEOUS LEISHMANIASIS” (priority 2020, published 2024).

Each structure is given as a SMILES string.

In this data set the test system is L. (L.) major. The settings on record: Old World patients, cutaneous leishmaniasis due to L. (L.) major (MOHEBALI et al., 2007).

`CCCCCCCCCCCCCCCCOP(=O)([O-])OCC[N+](C)(C)C` [miltefosine, hexadecylphosphocholine]: the cure rate is 93%.
